Test [1] has as its target Proto-oncogene tyrosine-protein kinase receptor Ret (Homo sapiens, UniProt P07949). As to the kind of experiment: Inhibition of recombinant RET (unknown origin) using poly (Glu, Tyr) 4:1 as substrate after 60 mins by ELISA. (In general: ELISA stands for enzyme-linked immunosorbent assay.)
In test [2] the target is Tyrosine-protein kinase ABL1 (Homo sapiens, UniProt P00519). The test can be described thus: Inhibition of recombinant ABL (unknown origin) using poly (Glu, Tyr) 4:1 as substrate after 60 mins by ELISA.
Test [3] has as its target Macrophage-stimulating protein receptor (Homo sapiens, UniProt Q04912). The test can be described thus: Inhibition of recombinant RON (unknown origin) using poly (Glu, Tyr) 4:1 as substrate after 60 mins by ELISA.
In test [4] the target is Receptor tyrosine-protein kinase erbB-4 (Homo sapiens, UniProt Q15303). The test can be described thus: Inhibition of recombinant ErbB4 (unknown origin) using poly (Glu, Tyr) 4:1 as substrate after 60 mins by ELISA.
For test [5], the target named is Mast/stem cell growth factor receptor Kit (Homo sapiens, UniProt P10721). As to the kind of experiment: Inhibition of recombinant c-Kit (unknown origin) using poly (Glu, Tyr) 4:1 as substrate after 60 mins by ELISA.
The target of test [6] is Epidermal growth factor receptor (Homo sapiens, UniProt P00533, L858M/T790M). As to the kind of experiment: Inhibition of EGFR T790M/[…] double mutant (unknown origin) expressed in baculovirus expression system using poly (Glu, Tyr) 4:1 as substrate after 60 mins by ELISA.
The target in test [7] is Fibroblast growth factor receptor 1 (Homo sapiens, UniProt P11362). The test can be described thus: Inhibition of FGFR1 (unknown origin) expressed in baculovirus expression system using poly (Glu, Tyr) 4:1 as substrate after 60 mins by ELISA.
Test [8] has as its target Platelet-derived growth factor receptor alpha (Homo sapiens, UniProt P16234). The test can be described thus: Inhibition of recombinant PDGFR-alpha (unknown origin) using poly (Glu, Tyr) 4:1 as substrate after 60 mins by ELISA.
The target of test [9] is T1, Epidermal growth factor receptor (Homo sapiens, UniProt P00533). As to the kind of experiment: Inhibition of EGF-induced EGFR phosphorylation in human A431 cells assessed as decrease in ERK phosphorylation at 0.01 to 10 uM incubated for 1 hr prior to EGF induction measured after 10 mins by Western blotting analysis. Type of test: cell-based. The conditions noted are these: A-431. (In general: A western blot detects proteins with antibodies after separation by electrophoresis.)
T1 sequence (P00533 whole entry): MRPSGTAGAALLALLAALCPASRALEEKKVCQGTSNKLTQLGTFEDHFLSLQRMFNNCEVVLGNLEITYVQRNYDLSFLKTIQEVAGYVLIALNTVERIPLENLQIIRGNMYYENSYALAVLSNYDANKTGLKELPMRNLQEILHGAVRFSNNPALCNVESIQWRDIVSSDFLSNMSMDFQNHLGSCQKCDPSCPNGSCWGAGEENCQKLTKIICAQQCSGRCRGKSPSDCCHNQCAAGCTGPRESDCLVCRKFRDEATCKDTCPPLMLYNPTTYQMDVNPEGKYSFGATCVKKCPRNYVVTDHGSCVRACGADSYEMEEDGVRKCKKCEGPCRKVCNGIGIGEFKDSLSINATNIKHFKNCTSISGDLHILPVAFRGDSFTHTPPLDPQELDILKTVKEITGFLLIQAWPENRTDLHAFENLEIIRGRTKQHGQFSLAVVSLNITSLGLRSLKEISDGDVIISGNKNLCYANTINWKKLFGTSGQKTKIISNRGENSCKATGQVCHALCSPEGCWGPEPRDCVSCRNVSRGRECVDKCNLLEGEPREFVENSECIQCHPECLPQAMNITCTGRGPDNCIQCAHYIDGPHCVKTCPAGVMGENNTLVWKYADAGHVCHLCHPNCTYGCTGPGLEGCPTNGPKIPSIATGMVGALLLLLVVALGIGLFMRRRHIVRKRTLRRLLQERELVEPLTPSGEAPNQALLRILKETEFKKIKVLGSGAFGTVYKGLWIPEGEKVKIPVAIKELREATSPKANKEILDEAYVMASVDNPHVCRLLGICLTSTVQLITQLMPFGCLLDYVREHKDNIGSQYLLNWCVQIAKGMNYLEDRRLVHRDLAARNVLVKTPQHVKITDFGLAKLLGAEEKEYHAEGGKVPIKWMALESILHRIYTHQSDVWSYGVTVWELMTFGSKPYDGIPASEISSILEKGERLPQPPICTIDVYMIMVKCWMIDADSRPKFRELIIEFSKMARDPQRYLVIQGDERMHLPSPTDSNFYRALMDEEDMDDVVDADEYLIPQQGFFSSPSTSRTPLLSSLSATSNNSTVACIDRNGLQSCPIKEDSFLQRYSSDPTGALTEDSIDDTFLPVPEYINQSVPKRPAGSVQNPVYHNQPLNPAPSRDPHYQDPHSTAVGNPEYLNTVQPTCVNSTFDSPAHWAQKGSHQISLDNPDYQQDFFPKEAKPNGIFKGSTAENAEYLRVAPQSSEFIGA

Test [10] has as its target T1, Epidermal growth factor receptor. The test can be described thus: Inhibition of EGF-induced EGFR phosphorylation in human A431 cells incubated for 1 hr prior to EGF induction measured after 10 mins by Western blotting analysis. Type of test: cell-based. The conditions noted are these: A-431.
For test [11] the target is unchanged. The test can be described thus: Inhibition of EGF-induced EGFR phosphorylation in human A431 cells at 0.01 uM incubated for 1 hr prior to EGF induction measured after 10 mins by Western blotting analysis. Format: cell-based. To be noted: A-431.
The target in test [12] is Platelet-derived growth factor receptor beta (Homo sapiens, UniProt P09619). As to the kind of experiment: Inhibition of recombinant PDGFR-beta (unknown origin) using poly (Glu, Tyr) 4:1 as substrate after 60 mins by ELISA.
Test [13] has as its target Vascular endothelial growth factor receptor 2 (Homo sapiens, UniProt P35968). As to the kind of experiment: Inhibition of KDR (unknown origin) expressed in baculovirus expression system using poly (Glu, Tyr) 4:1 as substrate after 60 mins by ELISA.
In another test the test system is A-431. As to the kind of experiment: Antiproliferative activity against human A431 cells after 72 hrs by SRB assay. Format: functional, cell-based. The conditions noted are these: A-431, 72 h. A general note: In SRB staining, fixed cells bind dye roughly in proportion to their protein.
For the next test, the system named is NCI-H1975. As to the kind of experiment: Antiproliferative activity against human NCI-H1975 cells expressing EGFR T790M mutant after 72 hrs by SRB assay. Type of test: functional, cell-based. The conditions noted are these: NCI-H1975, 72 h.
Test [14] has as its target Insulin-like growth factor 1 receptor (Homo sapiens, UniProt P08069). As to the kind of experiment: Inhibition of IGF1R (unknown origin) expressed in baculovirus expression system using poly (Glu, Tyr) 4:1 as substrate after 60 mins by ELISA.
Test [15] has as its target T1, Epidermal growth factor receptor. The test can be described thus: Inhibition of EGF-induced EGFR phosphorylation in human A431 cells assessed as decrease in AKT phosphorylation at 0.01 to 10 uM incubated for 1 hr prior to EGF induction measured after 10 mins by Western blotting analysis. Type of test: cell-based. The conditions noted are these: A-431.
The target of test [16] is Vascular endothelial growth factor receptor 1 (Homo sapiens, UniProt P17948). As to the kind of experiment: Inhibition of recombinant FLT-1 (unknown origin) using poly (Glu, Tyr) 4:1 as substrate after 60 mins by ELISA.
In test [17] the target is Receptor tyrosine-protein kinase erbB-2 (Homo sapiens, UniProt P04626). As to the kind of experiment: Inhibition of ErbB2 (unknown origin) expressed in baculovirus expression system using poly (Glu, Tyr) 4:1 as substrate after 60 mins by ELISA.
Chain of Receptor tyrosine-protein kinase erbB-2 (P04626 whole entry): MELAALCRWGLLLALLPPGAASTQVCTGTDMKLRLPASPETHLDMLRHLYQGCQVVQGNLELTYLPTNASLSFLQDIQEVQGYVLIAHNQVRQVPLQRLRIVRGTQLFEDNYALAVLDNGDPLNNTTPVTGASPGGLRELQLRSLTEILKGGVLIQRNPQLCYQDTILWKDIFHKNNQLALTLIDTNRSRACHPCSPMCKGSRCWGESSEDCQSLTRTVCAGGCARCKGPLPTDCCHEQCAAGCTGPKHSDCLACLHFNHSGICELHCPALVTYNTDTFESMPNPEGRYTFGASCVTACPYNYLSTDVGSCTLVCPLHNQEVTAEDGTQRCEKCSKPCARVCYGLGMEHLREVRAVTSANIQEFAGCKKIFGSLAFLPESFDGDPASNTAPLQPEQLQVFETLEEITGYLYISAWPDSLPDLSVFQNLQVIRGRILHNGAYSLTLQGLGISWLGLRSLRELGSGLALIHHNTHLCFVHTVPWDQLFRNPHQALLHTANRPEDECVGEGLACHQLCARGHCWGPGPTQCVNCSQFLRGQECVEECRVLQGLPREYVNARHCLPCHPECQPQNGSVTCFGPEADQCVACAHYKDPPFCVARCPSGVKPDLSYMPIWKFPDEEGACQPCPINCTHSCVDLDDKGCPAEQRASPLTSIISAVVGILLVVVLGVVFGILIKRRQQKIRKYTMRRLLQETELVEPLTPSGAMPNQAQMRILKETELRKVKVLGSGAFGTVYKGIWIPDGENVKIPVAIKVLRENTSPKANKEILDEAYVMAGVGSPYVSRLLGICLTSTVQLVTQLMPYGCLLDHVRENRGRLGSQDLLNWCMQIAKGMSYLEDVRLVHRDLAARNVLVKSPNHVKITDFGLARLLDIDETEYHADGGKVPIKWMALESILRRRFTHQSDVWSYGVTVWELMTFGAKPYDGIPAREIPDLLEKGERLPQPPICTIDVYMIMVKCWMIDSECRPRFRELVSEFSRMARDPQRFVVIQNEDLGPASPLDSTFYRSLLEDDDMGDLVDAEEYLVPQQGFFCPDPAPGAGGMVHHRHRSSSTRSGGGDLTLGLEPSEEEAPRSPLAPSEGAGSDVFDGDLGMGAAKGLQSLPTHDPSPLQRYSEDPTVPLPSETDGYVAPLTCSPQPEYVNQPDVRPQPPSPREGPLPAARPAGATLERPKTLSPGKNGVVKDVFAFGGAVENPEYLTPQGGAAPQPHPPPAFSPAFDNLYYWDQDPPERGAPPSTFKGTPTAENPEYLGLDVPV
Test [18] deals with T1, Epidermal growth factor receptor. The test can be described thus: Inhibition of wild type EGFR (unknown origin) expressed in baculovirus expression system using poly (Glu, Tyr) 4:1 as substrate after 60 mins by ELISA.
The next test deals with Ephrin type-A receptor 2 (Homo sapiens, UniProt P29317). The test can be described thus: Inhibition of recombinant EPHA2 (unknown origin) using poly (Glu, Tyr) 4:1 as substrate after 60 mins by ELISA.
Chain of Ephrin type-A receptor 2 (P29317 whole entry): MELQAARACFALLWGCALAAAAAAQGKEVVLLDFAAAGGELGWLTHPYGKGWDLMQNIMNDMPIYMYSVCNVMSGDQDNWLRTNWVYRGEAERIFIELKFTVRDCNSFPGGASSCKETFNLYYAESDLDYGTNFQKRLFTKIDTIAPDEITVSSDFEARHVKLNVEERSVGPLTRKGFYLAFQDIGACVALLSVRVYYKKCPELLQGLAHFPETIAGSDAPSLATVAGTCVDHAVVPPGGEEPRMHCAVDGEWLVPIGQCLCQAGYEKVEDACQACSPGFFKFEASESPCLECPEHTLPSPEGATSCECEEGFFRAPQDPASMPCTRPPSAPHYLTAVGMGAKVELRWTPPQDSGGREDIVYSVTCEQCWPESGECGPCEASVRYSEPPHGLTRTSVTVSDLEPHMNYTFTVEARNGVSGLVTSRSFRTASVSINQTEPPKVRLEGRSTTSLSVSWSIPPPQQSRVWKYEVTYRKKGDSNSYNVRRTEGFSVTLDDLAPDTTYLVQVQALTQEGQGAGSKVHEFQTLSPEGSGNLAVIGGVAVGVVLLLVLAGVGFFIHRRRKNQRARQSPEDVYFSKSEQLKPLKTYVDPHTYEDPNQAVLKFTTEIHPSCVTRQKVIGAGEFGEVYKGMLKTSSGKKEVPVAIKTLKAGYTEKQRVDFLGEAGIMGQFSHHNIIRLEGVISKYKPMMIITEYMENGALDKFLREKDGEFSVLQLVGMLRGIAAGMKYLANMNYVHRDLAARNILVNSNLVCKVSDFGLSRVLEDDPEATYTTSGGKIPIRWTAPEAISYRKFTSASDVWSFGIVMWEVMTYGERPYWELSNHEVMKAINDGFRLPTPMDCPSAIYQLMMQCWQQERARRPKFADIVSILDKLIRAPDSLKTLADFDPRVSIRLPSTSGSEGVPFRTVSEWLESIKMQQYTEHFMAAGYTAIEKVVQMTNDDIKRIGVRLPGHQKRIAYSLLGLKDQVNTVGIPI
The test system of test [19] is Epidermal growth factor receptor (Homo sapiens), P00533 [T790M]. As to the kind of experiment: Inhibition of EGF-induced EGFR T790M mutant phosphorylation in human NCI-H1975 cells assessed as ERK phosphorylation at < 10 uM incubated for 1 hr prior to EGF induction measured after 10 mins by Western blotting analysis. Format: cell-based.
Chain of Epidermal growth factor receptor (Homo sapiens), P00533 [T790M] (P00533 whole entry T790M): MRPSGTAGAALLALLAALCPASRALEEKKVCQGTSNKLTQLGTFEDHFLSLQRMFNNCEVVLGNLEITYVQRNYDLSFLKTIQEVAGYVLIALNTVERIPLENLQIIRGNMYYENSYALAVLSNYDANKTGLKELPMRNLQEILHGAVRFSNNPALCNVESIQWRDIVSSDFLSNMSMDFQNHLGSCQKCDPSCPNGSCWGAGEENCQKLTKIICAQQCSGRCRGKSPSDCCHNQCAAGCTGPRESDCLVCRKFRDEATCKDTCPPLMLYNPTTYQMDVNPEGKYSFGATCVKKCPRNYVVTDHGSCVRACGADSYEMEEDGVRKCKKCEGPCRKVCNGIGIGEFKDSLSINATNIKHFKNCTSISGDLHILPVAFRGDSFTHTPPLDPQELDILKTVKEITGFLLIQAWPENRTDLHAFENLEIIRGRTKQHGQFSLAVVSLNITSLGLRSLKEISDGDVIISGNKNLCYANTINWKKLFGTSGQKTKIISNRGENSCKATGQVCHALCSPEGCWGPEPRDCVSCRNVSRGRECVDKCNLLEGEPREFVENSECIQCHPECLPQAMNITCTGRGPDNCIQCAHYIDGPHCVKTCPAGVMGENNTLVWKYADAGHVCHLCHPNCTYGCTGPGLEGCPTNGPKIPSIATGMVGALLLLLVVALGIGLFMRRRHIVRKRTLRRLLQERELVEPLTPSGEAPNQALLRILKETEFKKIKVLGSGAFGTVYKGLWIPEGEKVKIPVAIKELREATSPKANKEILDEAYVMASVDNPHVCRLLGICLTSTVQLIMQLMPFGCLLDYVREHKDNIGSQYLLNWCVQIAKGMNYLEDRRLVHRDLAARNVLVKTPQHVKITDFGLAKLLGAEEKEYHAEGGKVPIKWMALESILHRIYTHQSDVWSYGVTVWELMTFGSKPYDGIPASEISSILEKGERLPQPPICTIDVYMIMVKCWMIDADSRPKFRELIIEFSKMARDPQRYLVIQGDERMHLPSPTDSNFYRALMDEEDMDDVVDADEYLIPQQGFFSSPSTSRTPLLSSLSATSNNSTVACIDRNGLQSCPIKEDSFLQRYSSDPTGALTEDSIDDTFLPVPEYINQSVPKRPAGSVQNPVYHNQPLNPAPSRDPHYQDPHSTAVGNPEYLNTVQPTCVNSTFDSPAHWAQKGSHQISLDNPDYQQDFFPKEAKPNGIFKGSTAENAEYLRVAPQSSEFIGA
The test system is the same in test [20]. As to the kind of experiment: Inhibition of EGF-induced EGFR T790M mutant phosphorylation in human NCI-H1975 cells assessed as AKT phosphorylation at < 10 uM incubated for 1 hr prior to EGF induction measured after 10 mins by Western blotting analysis. Type of test: cell-based.
Test [21] shares this test system. The test can be described thus: Inhibition of EGF-induced EGFR T790M mutant autophosphorylation in human NCI-H1975 cells at 10 uM incubated for 1 hr prior to EGF induction measured after 10 mins by Western blotting analysis. Type of test: cell-based.
For test [22], the target named is T1, Epidermal growth factor receptor. The test can be described thus: Irreversible inhibition of EGFR (unknown origin) using 5-FAM-EEPLYWSFPAKKK-CONH2 as substrate at 100 fold IC50 preincubated for 30 mins followed by 100 fold dilution measured for 2 hrs.

The source made the active and inactive calls. The rule behind the calls is not given here.

In the case of `CCN(CC)CCCNC(=O)Nc1cc2c(Nc3ccc(F)c(Cl)c3)ncnc2cc1O[C@H]1CCOC1`, the IC50 in [1] was 0.347 µM; in [2] it was 0.566 µM; in [3] it was more than 10 µM; in test [4], 0.008 µM; in [5], more than 10 µM; in [6] it was 3.06 µM. In addition, the IC50 was more than 10 µM in test [7]; more than 10 µM in test [8]; more than 10 µM in test [12]; more than 10 µM in test [13]; 0.196 µM in the test on A-431; 4.3 µM in the test with NCI-H1975. Further, the IC50 is more than 10 µM in test [14]; more than 10 µM in test [16]; 0.078 µM in [17]; 0.032 µM in test [18]; more than 10 µM at Ephrin type-A receptor 2. The inhibition result in test [9], in test [11] and in test [15] was “Active” each time. The inhibition entry in test [10] is “Dose-dependent effect”.

For the molecule `O=C(NCCN1CCCC1)Nc1cc2c(Nc3ccc(F)c(Cl)c3)ncnc2cc1O[C@H]1CCOC1`, the IC50 was 0.223 µM in test [1]; more than 10 µM in test [2]; 6.1 µM in test [3]; 0.012 µM in test [4]; more than 10 µM in test [5]; 0.061 µM in test [6]. The IC50 is more than 10 µM in [7]; more than 10 µM in test [8]; more than 10 µM in test [12]; more than 10 µM in test [13]; 0.247 µM in the test on A-431; 5.3 µM in the test with NCI-H1975. The IC50 in [14] was more than 10 µM; in test [16], more than 10 µM; in test [17], 0.112 µM; in test [18] it was 0.068 µM; at Ephrin type-A receptor 2 it was more than 10 µM. The inhibition entry in [19] and in test [20] was “inactive” in each case. For the same molecule, the inhibition entry in test [21] and in test [22] was “Active” throughout.

What is called IC50 is the concentration that gives 50% inhibition.

The record behind these values is ChEMBL document CHEMBL3091333, “Design, synthesis and biological evaluation of novel 4-anilinoquinazolines with C-6 urea-linked side chains as inhibitors of the epidermal growth factor receptor” (Bioorg Med Chem, 2013).
